Results from patent US10160785B2, “Antimicrobial peptides and their use for the treatment of topical infections” (priority 2015, dated 2018).

Assays:
Bacillus subtilis = settings: for Antimicrobial activity MIC B. s.: Bacillus subtilis, 37° C., 20 h
Description: (§1) Gram-positive bacteria (Micrococcus luteus, Bacillus subtilis, Staphylococcus aureus, Staphylococcus epidermidis and Enterococcus faecalis), Gram-negative bacteria (Escherichia coli and Pseudomonas aeruginosa) and the yeast (Candida albicans) were grown to exponential phase and then were diluted with fresh medium. BHI medium (Oxoid, Great Britain) was used for Enterococcus faecalis; YPD medium containing yeast extract peptone and glucose was used for Candida albicans and LB medium (Sigma, Czech Republic) was used for the remaining microorganisms. Then the microorganisms were added to the solutions of the tested antimicrobial peptides in LB medium in multi-well plates. The final peptide concentration it the wells was in the range of 0.1 to 100 μmol.l^−1. That was made by twofold serial dilution from the peptide stock solution (1 mmol.l^−1). The plates were incubated at 37° C. for 20 h while being continuously shaken in a Bioscreen C (Oy Growth Curves AB Ltd., Helsinki, Finland). Absorbance was measured at 540 nm every 15 min. Antimicrobial activity (Table 2) was determined as a quantitative minimum inhibitory concentration (MIC) by observing bacterial growth in the presence of different concentrations of tested peptides. In the experiments ca 10^5 CFU of bacteria or candida per well were routinely used.
(§2) Multiresistant clinical isolates of bacteria were obtained from University Hospital in Motol, Prague, Czech Republic and from Liberec Regional Hospital, Czech Republic. Methicillin resistant Staphylococcus aureus (MRSA) 6271 and Pseudomonas aeruginosa 5482 were from the Czech National Collection of Type Cultures, the National Institute of Public Health, Prague, Czech Republic. Other bacteria were from the Czech Collection of Microorganisms, Brno, Czech Republic. Candida albicans came from the Faculty of Medicine, Palacky University, Olomouc, Czech Republic.

[1] = system: Enterococcus faecalis Motol; settings: BHI medium, 37° C., 20 h
Description: as §1, §2

Escherichia coli = settings: 37° C., 20 h
Description: as §1, §2

[2] = system: Methicillin resistant Staphylococcus aureus (MRSA) 6271; settings: 37° C., 20 h
Description: as §1, §2

Micrococcus luteus = settings: for Antimicrobial activity MIC M. l.: Micrococcus luteus, 37° C., 20 h
Description: as §1, §2

[3] = system: Pseudomonas aeruginosa 5482; settings: 37° C., 20 h
Description: as §1, §2

[4] = system: Pseudomonas aeruginosa Liberec; settings: for Antimicrobial activity MIC P. a. Liberec: Pseudomonas aeruginosa Liberec, 37° C., 20 h
Description: as §1, §2

[5] = system: Staphylococcus aureus Liberec; settings: for Antimicrobial activity MIC S. a. Liberec: Staphylococcus aureus Liberec clinical isolate, 37° C., 20 h
Description: as §1, §2

[6] = system: Staphylococcus aureus Motol; settings: Staphylococcus aureus Motol clinical isolate; 37° C., 20 h
Description: as §1, §2

[7] = system: Staphylococcus epidermidis Motol; settings: 37° C., 20 h
Description: as §1, §2

Candida albicans Olomouc = settings: for Antimicrobial activity MIC C. a. Olomouc: Candida albicans Olomouc, YPD medium, 37° C., 20 h (Example 2)
Description: as §1, §2

in vitro = settings: human
Description: The peptides in the concentrations 2-200 μmol.l^−1 were incubated with the suspension of human red blood cells (5% v/v) for 1 h at 37° C. in a physiological solution at a final volume of 0.2 ml. The samples were then centrifuged for 5 min at 250 g, and the absorbance of the supernatant was determined at 540 nm. Supernatants of red blood cells suspended in physiological solution and in 0.2% (v/v) TRITON X100 in physiological solution served as controls for zero hemolysis (blank) and 100% hemolysis, respectively. Hemolytic activity is expressed as the peptide concentration required for lysis of 50% of human erythrocytes in the assay (LC50).

[8] = system: Candida albicans (Olomouc); assay: microbe, parasite or virus in culture; type: cell-based; settings: RPMI broth microdilution, 35° C., 48 hours, visual
Description: (§3) All yeasts Candida albicans (Olomouc) and ATCC MYA-2876, Candida glabrata ATCC 2001 and DSY 565, Candida dubliniensis ATCC MYA-646, Candida krusei ATCC 6258 and Candida tropicalis ATCC 750 were sub-cultured from sterile vials onto Sabouraud dextrose agar, which was composed of 40 g dextrose (Penta, Czech Republic), 10 g peptone (OXOID, Great Britain) and 17 g agar (OXOID), dissolved in 1 l of distilled water, and cultivated for 24 hours at 35° C.
(§4) All strains were stored in a way that minimizes the possibility of mutation. Candida spp. were grown overnight in liquid YPD medium which is composed of 10 g yeast extract (DIFCO, USA), 20 g peptone (OXOID), and 20 g dextrose (Penta) dissolved in 1 l distilled water. Then the overnight culture was cryogenically preserved by suspending in 50% glycerol solution (1:1) in small vials and stored at −80° C.
(§5) The inoculum was prepared by picking five colonies from 24-hour-old cultures of Candida spp. The colonies were suspended in 1 ml of sterile saline solution and vortexed for 15 seconds. Optical density of the suspension was adjusted spectrophotometrically by adding sterile saline solution to produce optical density of 0.18 at 600 nm. A working suspension was made by a 1:50 dilution followed by a 1:20 dilution of the stock suspension with RPMI 1640 broth medium which was composed of L-glutamine without NaHCO3 (BioSera, France), and with 0.165 mol.l^−1 MOPS (Duchefa, Netherland)—further as RPMI broth medium.
(§6) The broth microdilution test was performed by using sterile, disposable, multi-well microdilution plates (96-well). The peptides in the concentrations 0.625-160 μmol.l^−1 were pipetted into the wells in 100 μl volumes. Each well of the plate was inoculated with 100 μl of the diluted inoculum suspension. Final yeast density in each well was 5×10^2 up to 2.5×10^3 CFU/ml. The microdilution plates were incubated without shaking at 35° C. and observed for the presence or absence of visible growth for 48 hours.
(§7) Drug-free medium without inoculation served as negative control; the growth positive control contained inoculated drug-free medium. Amphotericin B was used as control drug to ensure quality of Candida strains.
(§8) The minimal inhibition concentrations (MICs) were visually determined 48 hours after inoculation. The MIC values were defined as the lowest concentration in which no observable growth is noticeable.
(§9) All yeast isolates were obtained from the Institute of Physiology of the Academy of Sciences of the Czech Republic. Candida albicans (Olomouc) came from the Faculty of Medicine and Dentistry, Palacý University Olomouc.

[9] = system: Candida albicans ATCC MYA-2876; assay: microbe, parasite or virus in culture; type: cell-based; settings: RPMI broth microdilution, 35° C., 48 hours, visual
Description: as §3, §4, §5, §6, §7, §8, §9

[10] = system: Candida dubliniensis ATCC MYA-646; assay: microbe, parasite or virus in culture; type: cell-based; settings: RPMI broth microdilution, 35° C., 48 hours, visual
Description: as §3, §4, §5, §6, §7, §8, §9

[11] = system: Candida glabrata ATCC 2001; assay: microbe, parasite or virus in culture; type: cell-based; settings: RPMI broth microdilution, 35° C., 48 hours, visual
Description: as §3, §4, §5, §6, §7, §8, §9

Candida glabrata DSY 565 = assay: microbe, parasite or virus in culture; type: cell-based; settings: RPMI broth microdilution, 35° C., 48 hours, visual
Description: as §3, §4, §5, §6, §7, §8, §9

Candida krusei ATCC 6258 = assay: microbe, parasite or virus in culture; type: cell-based; settings: RPMI broth microdilution, 35° C., 48 hours, visual
Description: as §3, §4, §5, §6, §7, §8, §9

[12] = system: Candida tropicalis ATCC 750; assay: microbe, parasite or virus in culture; type: cell-based; settings: RPMI broth microdilution, 35° C., 48 hours, visual
Description: as §3, §4, §5, §6, §7, §8, §9

P. aeruginosa (Liberec) = assay: Synergistic effect of peptides with antibiotics, FIC index; type: cell-based, Pseudomonas aeruginosa; settings: FIC <0.5 synergism, 0.5-2 additive, >2 antagonism, averages of three experiments; for FIC indexes (fractional inhibitory concentration) Combination with RIF against P. aeruginosa: peptide combined with rifampicin; for FIC indexes (fractional inhibitory concentration) Combination with TET against P. aeruginosa: peptide combined with tetracycline
Description: MICs values of various combinations of two fold serial dilutions of peptides and antibiotics were determined using the same methodology as in the case of antimicrobial activity determination (Example 2). To consider the type of the final effect, FIC indexes (fractional inhibitory concentration) were used and calculated as follows:
[formula] where MICPC and MICAC are the MICs of the peptide and antibiotic in combination, respectively, and MICP and MICA are the MICs of the peptide and antibiotic tested alone, respectively. FIC<0.5 were considered as synergy, 0.5≤FIC≤2 as addition effect, and FIC>2 as antagonism.

[13] = synthetically prepared hylanine, in words

Compound	Antimicrobial activity MIC B. s. (Bacillus subtilis) [µM]	Antimicrobial activity MIC E. f. Motol [1] [µM]	Antimicrobial activity MIC E. c. (Escherichia coli) [µM]	Antimicrobial activity MIC S. a. 6271 [2] [µM]	Antimicrobial activity MIC M. l. (Micrococcus luteus) [µM]	Antimicrobial activity MIC P. a. 5482 [3] [µM]	Antimicrobial activity MIC P. a. Liberec [4] [µM]	Antimicrobial activity MIC S. a. Liberec [5] [µM]	Antimicrobial activity MIC S. a. Motol [6] [µM]	Antimicrobial activity MIC S. e. Motol [7] [µM]	Antimicrobial activity MIC C. a. Olomouc (Candida albicans Olomouc) [µM]	HC50 at 1 h (in vitro) [µM]	Antifungal activity MIC C. albicans Olomouc [8] [µM]	Antifungal activity MIC C. albicans ATCC MYA-2876 [9] [µM]	Antifungal activity MIC C. dubliniensis ATCC MYA-646 [10] [µM]	Antifungal activity MIC C. glabrata ATCC 2001 [11] [µM]	Antifungal activity MIC C. glabrata DSY 565 (Candida glabrata DSY 565) [µM]	Antifungal activity MIC C. krusei ATCC 6258 (Candida krusei ATCC 6258) [µM]	Antifungal activity MIC C. tropicalis ATCC 750 [12] [µM]	FIC indexes (fractional inhibitory concentration) Combination with RIF against P. aeruginosa (P. aeruginosa (Liberec))	also measured
CN(C)[C@@H]1C(=O)C(C(N)=O)=C(O)[C@@]2(O)C(=O)C3=C(O)c4c(O)cccc4[C@@](C)(O)[C@H]3C[C@@H]12 [Tetracyklin, Tetracycline, reference compound]	16.0	40.0	2.7	0.9	0.8	28.7	70.4	1.1	2.0	>100	–	–	–	–	–	–	–	–	–	–	–
H-GILSSLLKKLKKWIAK-NH2 [XVIII]	1.3	25.3	4.0	8.0	–	8.0	20.7	2.5	4.0	1.6	16.0	160	8.5	10.0	10.0	8.5	24.0	7.8	1.2	0.271	FIC indexes (fractional inhibitory concentration) Combination with TET against P. aeruginosa (P. aeruginosa (Liberec)): 0.625
H-GILSSLWKKLKKWIAK-NH2 [XVII]	1.3	10.0	2.5	2.5	–	12.7	24.1	1.6	2.0	1.6	12.7	57.2	4.5	5.5	5.0	5.5	11.0	3.3	0.8	0.292	FIC indexes (fractional inhibitory concentration) Combination with TET against P. aeruginosa (P. aeruginosa (Liberec)): 0.417
H-GIMSSLMKKLAAHIAK-NH2 [hylanine, reference compound]	–	–	–	–	–	–	–	–	–	–	–	–	–	–	–	–	–	–	–	–	antimicrobial activity against Bacillus subtilis (Bacillus subtilis; [13]): high antimicrobial activity; activity against the yeast Candida albicans (Candida albicans Olomouc; [13]): moderate activity; antimicrobial activity against Micrococcus luteus (Micrococcus luteus; [13]): high antimicrobial activity; activity against Pseudomonas aeruginosa ([4]; all strains, in words): weak; activity against Staphylococcus aureus ([5]; all strains of pathogenic Staphylococcus aureus, in words): weak
H-GIMSSLMKKLAAHIKK-NH2 [VIII]	2.8	>100	20.0	85.3	1.6	23.0	46.0	76.7	90.0	11.3	5.0	–	17.0	20.0	36.0	26.0	66.7	10.0	1.1	–	–
